System: cerebral synaptosomal protein
Assay: Western blot analysis of cerebral synaptosomal proteins, Fragile X model
Type: in vivo, mouse
Conditions: Fmr1 KO mice
Source text: Twenty μg of cerebral synaptosomal protein was loaded in SDS-polyacrylamide gels (Bis-Tris Gels) and transferred to PVDF membranes. The blots were first stained with Ponceau S, scanned, and the transfer efficiency was quantified by densitometry before blocking with 3% skim milk, and probing with primary and secondary antibodies for signal development by enhanced chemiluminescence (ECL).

[1] = cerebral synaptosomes, suramin vs saline
[2] = cerebral synaptosomes, listed as suramin

## Cc1ccc(C(=O)Nc2ccc(S(=O)(=O)O)c3cc(S(=O)(=O)O)cc(S(=O)(=O)O)c23)cc1NC(=O)c1cccc(NC(=O)Nc2cccc(C(=O)Nc3cc(C(=O)Nc4ccc(S(=O)(=O)O)c5cc(S(=O)(=O)O)cc(S(=O)(=O)O)c45)ccc3C)c2)c1 [Suramin, suramin]
Suramin vs saline
  proteins interrogated in cerebral synaptosomes that were changed: 17 of 54
Cerebral synaptosomes
  Response to Suramin KO-Sur/KO-Sal: 7-dehydrocholesterol reductase/7DHCR: Up
  Response to Suramin KO-Sur/KO-Sal: APC: Down
  Response to Suramin KO-Sur/KO-Sal: Acetyl-CoA acetyltransferase 2/ACAT2: None
  Response to Suramin KO-Sur/KO-Sal: Akt: decreased and Down
  Response to Suramin KO-Sur/KO-Sal: Amyloid β (Aβ) precursor protein/APP: Down
  Response to Suramin KO-Sur/KO-Sal: C1qA: Down
  Response to Suramin KO-Sur/KO-Sal: CB1: Down
  Response to Suramin KO-Sur/KO-Sal: CB2: unchanged and None
  Response to Suramin KO-Sur/KO-Sal: CPY27A1: None
  Response to Suramin KO-Sur/KO-Sal: Dopamine Receptor D4/D4R: None
  Response to Suramin KO-Sur/KO-Sal: ETFQO/ETFDH: None
  Response to Suramin KO-Sur/KO-Sal: Fragile X mental retardation protein/FMRP: None
  Response to Suramin KO-Sur/KO-Sal: GABA A Receptor beta 3/GABA-β3: None
  Response to Suramin KO-Sur/KO-Sal: GluR1: Down
  Response to Suramin KO-Sur/KO-Sal: HMGCoA Reductase/HMOCoAR: None
  Response to Suramin KO-Sur/KO-Sal: IP3R I: Up
  Response to Suramin KO-Sur/KO-Sal: Indoleamine 2,3-dioxygenase 1/IDO-1: None
  Response to Suramin KO-Sur/KO-Sal: Metabotropic glutamate receptor 5/mGluR5: no effect and None
  Response to Suramin KO-Sur/KO-Sal: Methionine Sulfoxide Reductase A/MSRA: None
  Response to Suramin KO-Sur/KO-Sal: Nicotinic Acetylcholine Receptor alpha 7/nAchR7: None
  Response to Suramin KO-Sur/KO-Sal: Nitro Tyrosine: None
  Response to Suramin KO-Sur/KO-Sal: P2X1: None
  Response to Suramin KO-Sur/KO-Sal: P2X2: None
  Response to Suramin KO-Sur/KO-Sal: P2X3R: Down
  Response to Suramin KO-Sur/KO-Sal: P2X4: None
  Response to Suramin KO-Sur/KO-Sal: P2X5: None
  Response to Suramin KO-Sur/KO-Sal: P2X6: None
  Response to Suramin KO-Sur/KO-Sal: P2X7: None
  Response to Suramin KO-Sur/KO-Sal: P2Y1R: Up
  Response to Suramin KO-Sur/KO-Sal: P2Y2: None
  Response to Suramin KO-Sur/KO-Sal: P2Y4: None
  Response to Suramin KO-Sur/KO-Sal: PGC1a: None
  Response to Suramin KO-Sur/KO-Sal: PI3K: decreased and Down
  Response to Suramin KO-Sur/KO-Sal: PKC: None
  Response to Suramin KO-Sur/KO-Sal: PPAR beta/delta: Up
  Response to Suramin KO-Sur/KO-Sal: PPARa: no effect and None
  Response to Suramin KO-Sur/KO-Sal: Postsynaptic Density protein 95/PSD95: None
  Response to Suramin KO-Sur/KO-Sal: Steroidogenic acute regulatory protein/StAR: Up
  Response to Suramin KO-Sur/KO-Sal: TAR DNA-binding protein 43/TDP43: Down
  Response to Suramin KO-Sur/KO-Sal: TGFβ Receptor I: None
  Response to Suramin KO-Sur/KO-Sal: mTOR: not observed and None
  Response to Suramin KO-Sur/KO-Sal: nAchR beta2: None
  Response to Suramin KO-Sur/KO-Sal: p-eIF2α(Ser51): None
  Response to Suramin KO-Sur/KO-Sal: p-mTOR(ser2448): not observed and None
  Response to Suramin KO-Sur/KO-Sal: pAkt(Ser473): None
  Response to Suramin KO-Sur/KO-Sal: pAkt(Thr308): None
  Response to Suramin KO-Sur/KO-Sal: pCAMKII(Thr286): None
  Response to Suramin KO-Sur/KO-Sal: pERK1/2(Thr202/Tyr204): None
  Response to Suramin KO-Sur/KO-Sal: pGSK3β (Ser9): Up
  Response to Suramin KO-Sur/KO-Sal: pPERK(Thr980): None
  Response to Suramin KO-Sur/KO-Sal: pPKC(Ser660): None
  Response to Suramin KO-Sur/KO-Sal: pS6K(Thr389): Up
  Response to Suramin KO-Sur/KO-Sal: pSTAT3(ser727): None
[1]
  decrease of CB1 receptor expression: 16%
  decrease of P2X3 receptor expression: 18%
  decrease of ionotropic GluR1 expression: 15%
  decrease of synaptosomal APP levels: 23%
  decrease of synaptosomal C1qA: 24%
  decrease of synaptosomal TDP43: 27%
  decrease of total APC expression: 29%
  increase in IP3R1 expression: 101%
  increase of 7-dehydrocholesterol reductase (7DHCR): 24%
  increase of P2Y1 receptor expression: 31%
  increase of inhibitory phosphorylation of S6 kinase (S6K): 47%
  increase of inhibitory phosphorylation of glycogen synthase kinase 3β (GSK3β): 75%
  increase of steroidogenic acute regulatory (StAR) protein: 165%
[2]
  Response to Suramin KO-Sur/KO-Sal: Nicotinic Acetylcholine Receptor alpha 7/nAchR7: No effect
  Response to Suramin KO-Sur/KO-Sal: P2X7: No effect
  Response to Suramin KO-Sur/KO-Sal: P2Y2: No effect
  Response to Suramin KO-Sur/KO-Sal: pCAMKII(Thr286): No effect
  Response to Suramin KO-Sur/KO-Sal: pERK1/2(Thr202/Tyr204): No effect
Purified brain synaptosomes, suramin vs saline
  increase of PPARβ expression: 34%

From US20160209428A1, “DIAGNOSTIC AND PREDICTIVE METABOLITE PATTERNS FOR DISORDERS AFFECTING THE BRAIN AND NERVOUS SYSTEM” (THE REGENTS OF THE UNIVERSITY OF CALIFORNIA, priority 2013, published 2016)
